Measurements from patent US20140357512A1, “HISTONE DEACETYLASE (HDAC) BIOMARKERS IN MULTIPLE MYELOMA” (priority 2013, published 2014).

Tested on: human myeloma cell line MM.1S
Assay: SILAC acetylated-lysine peptide profiling, HDAC inhibitor vs DMSO (light/heavy ratio)
Format: cell-based
Text: An embodiment of the invention comprises utilizing the SILAC method in order to quantitate changes in protein expression between two or more populations of cells. The SILAC method is a technique based on mass spectrometry that detects differences in protein abundance among samples using non-radioactive isotopic labeling. The SILAC method is known in the art, and described in detail in Ong et al., “Stable Isotope Labeling by Amino Acids in Cell Culture, SILAC, as a Simple and Accurate Approach to Expression Proteomics”, Molecular & Cellular Proteomics, vol. 1, pp. 376-386 (2002), which is incorporated herein by reference in its entirety.
Briefly, the SILAC method involves growing two populations of cells in cell culture. The first population of cells is grown in growth media containing normal amino acids (“normal media”). The second population of cells is grown in media lacking a standard essential amino acid (such as lysine), but is then supplemented with a non-radioactive, isotopically labeled form of that essential amino acid (such as lysine labeled with ^13C atoms, rather than normal ^12C atoms), which is called “heavy media”. When the two populations of cells are each growing in the medium, they incorporate the amino acids into all of their proteins. The growth of cells maintained in the heavy media is no different from that in normal media. All peptides containing the heavy amino acids are heavier than their normal counterparts. The cells from each of the two populations of cells are lysed. The lysates from each of the two cell populations are then combined. The combined cell lysates are then analyzed by mass spectrometry. Pairs of chemically identical peptides of different stable isotope composition can be differentiated in a mass spectrometer due to their difference in mass. The ratio of peak intensities in the mass spectrum for such peptide pairs reflects the abundance ratio for the two proteins.
This example describes SILAC studies that were performed to compare the effects of three different HDAC inhibitors (Compound A, Compound B, and tubastatin A) to a control on a human multiple myeloma cell line. The HDAC inhibitors were also compared amongst themselves to determine differences in their effects.
A human myeloma cell line MM.1S was grown using either ^12C (light) or ^13C (heavy) lysine containing culture medium. The “heavy” cells were treated with DMSO as the control, and the “light” cells were treated with a single HDAC inhibitor at 37° C. for 6 hours. The heavy and light cells were lysed, and the lysates were mixed in 1:1 ratio and digested with the protease trypsin. The acetylated lysine containing peptides (due to the action of the HDAC inhibitor) in the digested peptide pool were captured by a non-specific anti-acetylated lysine antibody cocktail (the antibodies identify both light and heavy acetylated peptides), and subjected to mass spectrometry analysis in order to identify thousands of individual peptides.
Thousands of peptides were identified in pairs (^12C and ^13C) due to their known mass differences. The amino acid sequence and quantitative ratio (Light/Heavy) of a given peptide in two differentially treated cell lysates were then determined and annotated with their possible protein (gene) sources.
As stated above, three HDAC inhibitors (Compound A, Compound B, and Tubastatin A) were used. Thus, the SILAC method was performed three times, with a different HDAC inhibitor compared to a control each time. Accordingly, there are three pairs of quantitative data in the table below, i.e., Compound A:DMSO, Compound B:DMSO, and Tubastatin A:DMSO. A cut-off of 1.30 fold of change (increase or decrease) was then used to determine “changed” or “+” in the table, and any peptides with a fold of change less than 1.3 fold were determined to be “unchanged” or “0” in the table. Those peptides that were not identified were marked as “NA” in the table. […]

## O=C(CCCCCCNC(=O)c1cnc(N(c2ccccc2)c2ccccc2)nc1)NO [Compound A, 2-(diphenylamino)-N-(7-(hydroxyamino)-7-oxoheptyl)pyrimidine-5-carboxamide]
Glyceraldehyde-3-phosphate dehydrogenase [263], gene GAPDH, inhibitor:DMSO
  light to heavy ratio (L/H ratio) of acetylated peptide VVK(ac)QASEGPLK (SEQ ID NO: 597): 0.45 log 2
Glycyl-tRNA synthetase [224], gene GARS, inhibitor:DMSO
  light to heavy ratio (L/H ratio) of acetylated peptide AHLQK(ac)LMSDK (SEQ ID NO: 549): 0.39 log 2
Guanine nucleotide-binding protein G(olf) subunit alpha [55], gene GNAL, drug:DMSO
  light to heavy ratio (L/H ratio), log 2 scale, acetylated peptide LLLLGAGESGK(ac)STIVK (SEQ ID NO: 769): 0.97
H2AFV [5:8], log 2 scale, drug vs DMSO
  L/H ratio of acetylated peptide AGGK(ac)AGK(ac)DSGK (SEQ ID NO: 15): 1.00
H(+)/CI(−) exchange transporter 5 [587], gene CLCN5, inhibitor:DMSO
  light to heavy ratio (L/H ratio) of acetylated peptide TLAMDVMK(ac)PR (SEQ ID NO: 501): −0.76 log 2
H/ACA ribonucleoprotein complex subunit 3 [40], gene NOP10, inhibitor:DMSO
  light to heavy ratio (L/H ratio) of acetylated peptide FSPDDK(ac)YSR (SEQ ID NO: 504): −0.68 log 2
HADHA [406], log 2 scale, drug vs DMSO
  L/H ratio of acetylated peptide GQQQVFK(ac)GLNDK (SEQ ID NO: 41): 0.00
HGMK(ac)VVLISR (SEQ ID NO: 494), Estradiol 17-beta-dehydrogenase 12 [76], HSD17B12
  L/H ratio of acetylated peptide: −1.00 log 2
HIST1H2BO [6:12], log 2 scale, drug vs DMSO
  L/H ratio of acetylated peptide PDPAK(ac)SAPAPK(ac)K (SEQ ID NO: 16): 1.00
HLA-B associated transcript 1 [188], gene SNORD84, DDX39B, inhibitor:DMSO
  light to heavy ratio (L/H ratio) of acetylated peptide SLNLK(ac)HIK (SEQ ID NO: 607): 0.46 log 2
HMGB2 [30], log 2 scale, drug vs DMSO
  L/H ratio of acetylated peptide K(ac)[…] (SEQ ID NO: 42): 0.00
HNRNPA3 [29], log 2 scale, drug vs DMSO
  L/H ratio of acetylated peptide RGEEGHDPK(ac)EPEQLR (SEQ ID NO: 43): 0.00
HNRNPM [83], log 2 scale, drug vs DMSO
  L/H ratio of acetylated peptide […](ac)WQSLK (SEQ ID NO: 44): 0.00
HNRNPM [134], log 2 scale, drug vs DMSO
  L/H ratio of acetylated peptide AAEVLNK(ac)HSLSGRPLK (SEQ ID NO: 3): 0.00
HNRNPR [341], log 2 scale, drug vs DMSO
  L/H ratio of acetylated peptide VK(ac)VLFVR (SEQ ID NO: 45): 0.00
HNRNPU [246], log 2 scale, drug vs DMSO
  L/H ratio of acetylated peptide […](ac)YSR (SEQ ID NO: 46): 0.00
HNRNPU [497], log 2 scale, drug vs DMSO
  L/H ratio of acetylated peptide TTWVTK(ac)HAAENPGK (SEQ ID NO: 47): 0.00
HSP90B1 [97], log 2 scale, drug vs DMSO
  L/H ratio of acetylated peptide NK(ac)EIFLR (SEQ ID NO: 52): 0.00
HSP90B1 [114], log 2 scale, drug vs DMSO
  L/H ratio of acetylated peptide […](ac)IR (SEQ ID NO: 49): 0.00
HSP90B1 [161], log 2 scale, drug vs DMSO
  L/H ratio of acetylated peptide EELVK(ac)NLGTIAK (SEQ ID NO: 48): 0.00
HSP90B1 [455], log 2 scale, drug vs DMSO
  L/H ratio of acetylated peptide ETLQQHK(ac)LLK (SEQ ID NO: 50): 0.00
HSP90B1 [479], log 2 scale, drug vs DMSO
  L/H ratio of acetylated peptide IADDK(ac)YNDTFWK (SEQ ID NO: 51): 0.00
HSPA5 [96], log 2 scale, drug vs DMSO
  L/H ratio of acetylated peptide […](ac)R (SEQ ID NO: 54): 0.00
HSPA5 [213], log 2 scale, drug vs DMSO
  L/H ratio of acetylated peptide […](ac)R (SEQ ID NO: 53): 0.00
HSPA8 [71], log 2 scale, drug vs DMSO
  L/H ratio of acetylated peptide […](ac)R (SEQ ID NO: 55): 0.00
Heat shock 70 kDa protein 1A/1B [71], HSPA1B, HSPA1A, drug:DMSO
  light to heavy ratio (L/H ratio) of acetylated peptide […](ac)R (SEQ ID NO: 267): 0.44 log 2
Heterogeneous nuclear ribonucleoprotein F [98], gene HNRNPF, drug:DMSO
  light to heavy ratio (L/H ratio), log 2 scale, acetylated peptide TEMDWVLK(ac)[…] (SEQ ID NO: 797): 1.00
Heterogeneous nuclear ribonucleoprotein U-like protein 2 [553], gene HNRNPUL2, inhibitor:DMSO
  light to heavy ratio (L/H ratio) of acetylated peptide LLLFK(ac)TFSR (SEQ ID NO: 514): −0.57 log 2
High mobility group protein B2 [157], gene HMGB2, inhibitor:DMSO
  light to heavy ratio (L/H ratio) of acetylated peptide YEK(ac)DIAAYR (SEQ ID NO: 595): 0.45 log 2
Histone H2A.V [8:12], gene H2AFV, drug:DMSO
  light to heavy ratio (L/H ratio), log 2 scale, acetylated peptide AGK(ac)DSGK(ac)AK (SEQ ID NO: 786): 1.00
Histone H2B type 1-B [16:17], gene HIST1H2BB, drug:DMSO
  light to heavy ratio (L/H ratio), log 2 scale, acetylated peptide GSK(ac)K(ac)AITK (SEQ ID NO: 790): 1.00
Histone H2B type 1-D [6:12], gene HIST1H2BD, drug:DMSO
  light to heavy ratio (L/H ratio), log 2 scale, acetylated peptide PEPTK(ac)SAPAPK(ac)K (SEQ ID NO: 791): 1.00
Histone H2B type 1-M [16:17], gene HIST1H2BM, drug:DMSO
  light to heavy ratio (L/H ratio), log 2 scale, acetylated peptide GSK(ac)K(ac)AINK (SEQ ID NO: 792): 1.00
Histone H2B type 1-M [17:21], gene HIST1H2BM, drug:DMSO
  light to heavy ratio (L/H ratio), log 2 scale, acetylated peptide K(ac)AINK(ac)AQK (SEQ ID NO: 793): 1.00
Histone H2B type 2-E [6:12], HIST2H2BE, drug:DMSO
  light to heavy ratio (L/H ratio) of acetylated peptide PEPAK(ac)SAPAPK(ac)K (SEQ ID NO: 309): 1.00 log 2
